According to publication PMC2920549, “Bromopyrrole Alkaloids as Lead Compounds against Protozoan Parasites” (Marine Drugs, 2010):
Converted amounts (≈) assume the structure as drawn. “And” between values parts separate entries of the source, which are not always exact repeats. Equal entries are not always repeated. Where two headings read alike, the source gives them in different places. Marks after values point to notes of the source that are not given here.

Columns and labels:
[1] = Cytotoxicity against L6-cells (resazurin); format: cell-based, rat; settings: rat
Protocol: (§1) The toxicity on mammalian cells was assessed against L6 cells, a primary cell line derived from rat skeletal myoblasts.
(§2) Assays were performed in 96-well microtiter plates, each well containing 100 μL of RPMI 1640 medium supplemented with 1% L-glutamine (200 mM) and 10% fetal bovine serum, and 4 × 10^4 L-6 cells (a primary cell line derived from rat skeletal myoblasts). Serial drug dilutions of seven 3-fold dilution steps covering a range from 90 to 0.123 μg/mL were prepared. After 72 h of incubation the plates were inspected under an inverted microscope to assure growth of the controls and sterile conditions. 10 μl of a resazurin solution (12.5 mg resazurin dissolved in 100 mL distilled water) was then added to each well and the plates incubated for another 2 h. Then the plates were read with a Spectramax Gemini XS microplate fluorometer using an excitation wavelength of 536 nm and an emission wavelength of 588 nm. Data were analyzed using the microplate reader software Softmax Pro. Each CC50 value obtained is the mean of at least two separate experiments performed in duplicate. Podophyllotoxin was the standard drug used.

[2] = tested on: T. b. rhodesiense STIB 900 bloodstream forms; assay: Activity against Trypanosoma brucei rhodesiense (resazurin assay); format: cell-based; settings: for IC50: Trypanosoma brucei, read-out: IC50 T. b. rhodesiense; for IC50 / IC50 T. b. rhodesiense: 72 h; for Selectivity index (CC50 L6 / IC50 parasite) for T. brucei rhodesiense: CC50 L6 cells divided by IC50 T. b. rhodesiense
Protocol: as §1
STIB 900 strain of T. b. rhodesiense and the standard drug melarsoprol were used for the assay. […] Data were analyzed using the microplate reader software Softmax Pro (Molecular Devices Cooperation, Sunnyvale, CA, USA).

[3] = tested on: L. donovani strain MHOM/ET/67/L82 axenic amastigotes; assay: Activity against Leishmania donovani (axenic amastigotes, resazurin); format: cell-based; settings: for IC50: Leishmania donovani, read-out: IC50 L. donovani; for IC50 / IC50 L. donovani: 72 h; for Selectivity index (CC50 L6 / IC50 parasite) for L. donovani: CC50 L6 cells divided by IC50 L. donovani
Protocol: as §1
Amastigotes of L. donovani strain MHOM/ET/67/L82 were grown in axenic culture at 37 °C in SM medium at pH 5.4 supplemented with 10% heat-inactivated fetal bovine serum under an atmosphere of 5% CO2 in air. One hundred μL of culture medium with 10^5 amastigotes from axenic culture with or without a serial drug dilution were seeded in 96-well microtiter plates. […] Data were analyzed using the software Softmax Pro. Decrease of fluorescence (=inhibition) was expressed as percentage of the fluorescence of control cultures and plotted against the drug concentrations. From the sigmoidal inhibition curves the IC50 values were calculated. […] Miltefosine was used as a reference drug.

[4] = tested on: T. cruzi Tulahuen strain C2C4 intracellular amastigotes in L6 rat skeletal myoblasts; assay: Activity against Trypanosoma cruzi (beta-galactosidase/CPRG assay in L6 cells); format: cell-based; settings: for IC50: Trypanosoma cruzi, TULAHUEN, L6, 96 h; for IC50 T. cruzi: 96 h
Protocol: Then the substrate CPRG/Nonidet (50 μl) was added to all wells. A color reaction developed within 2–6 h and could be read photometrically at 540 nm. Data were transferred into the graphic programme Softmax Pro (Molecular Devices), which calculated IC50 values. […] Benznidazole was the standard drug used.

[5] = tested on: P. falciparum K1 strain erythrocytic stages; assay: Activity against Plasmodium falciparum ([3H]-hypoxanthine incorporation); format: cell-based; settings: for IC50: Plasmodium falciparum; for IC50 P. falciparum: K1 strain; for Selectivity index (CC50 L6 / IC50 parasite) for P. falciparum: CC50 L6 cells divided by IC50 P. falciparum
Protocol: as §1
The radioactivity was counted using a Betaplate^TM liquid scintillation counter (Wallac, Zurich, Switzerland). […] IC50 values were calculated from graphically plotted dose-response curves.

L6 cells [6] = assay: Cytotoxicity against L6-cells (resazurin); format: cell-based, rat; settings: 72 h
Protocol: as §1, §2

L6 cells [7] = tested on: L6 cells; set-up: method as in PMID 17765547; settings: earlier study; cited from earlier work
[8] = tested on: T. cruzi Tulahuen strain C2C4 intracellular amastigotes in L6 rat skeletal myoblasts; set-up: method as in PMID 17765547; settings: earlier study; cited from earlier work
[9] = tested on: L. donovani strain MHOM/ET/67/L82 axenic amastigotes; set-up: method as in PMID 17765547; settings: earlier study; cited from earlier work
[10] = tested on: P. falciparum K1 strain erythrocytic stages; set-up: method as in PMID 17765547; settings: earlier study; cited from earlier work
[11] = tested on: T. b. rhodesiense STIB 900 bloodstream forms; set-up: method as in PMID 17765547; settings: earlier study; cited from earlier work
[12] = tested on: PfFabI (enoyl-ACP reductase); set-up: method as in PMID 17765547; settings: previous project; cited from earlier work
[13] = molecular target: T1, PfFabZ (β-hydroxyacyl-ACP dehydratase) (Plasmodium falciparum, UniProt Q965D7); assay: biochemical
T1 construct: made in house
T1 sequence (Q965D7 19-230): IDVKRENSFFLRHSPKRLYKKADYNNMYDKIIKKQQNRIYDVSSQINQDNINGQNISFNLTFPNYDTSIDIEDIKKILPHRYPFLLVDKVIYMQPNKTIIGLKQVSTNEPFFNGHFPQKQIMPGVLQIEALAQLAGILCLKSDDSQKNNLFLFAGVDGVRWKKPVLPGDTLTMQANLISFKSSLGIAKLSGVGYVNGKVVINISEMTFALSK
Protocol: Expression and purification of the PfFab enzymes as well as the assays were performed as described [29]. […] Measurements were carried out in Nundron Surface sterile 96-well plates, using 20 mM Hepes and 150 mM NaCl at pH 7.4. Compounds were dissolved in DMSO (maximum final concentration 1%). A dilution series of 50 μg/mL to 0.0005 μg/mL of dissolved compounds was measured. For PfFabI, 400 μM NADH (cofactor, Sigma) was added to 2 μg enzyme and reaction started by addition of 300 μM crotonyl-CoA (substrate, Sigma). The change of absorbance of the mixture was recorded spectrophotometrically at 340 nm for 40 minutes. Triclosan was used as a positive control and was analyzed the same way. For PfFabG 400 μM NADPH (cofactor, Fluka) was added to 0.5 μg enzyme and reaction started by addition of 300 μM acetoacetyl-CoA (substrate, Sigma). The change of absorbance of the mixture was recorded spectrophotometrically at 340 nm for 20 minutes. (-)-Epigallocatechin gallate (Sigma) was used as a positive control and was analyzed the same way. For PfFabZ, 600 μM crotonoyl-CoA (substrate, Sigma) was added to 0.5 μg enzyme. The change of absorbance of the mixture was recorded spectrophotometrically at 260 nm for 20 minutes. (−)-Epigallocatechin gallate was used as a positive control. IC50 values were estimated from graphically plotted dose-response curves. […]

[14] = K1, K1 strain, erythrocytic stage, read-out: IC50 P. falciparum
[15] = 72 h, read-out: CC50 Cytotoxicity L6 cells
[16] = K1, read-out: IC50 P. falciparum

Row | Compound | CC50 at 72 h [1] | IC50 ([2]; STIB 900 bloodstream forms) | IC50 ([3]; axenic amastigotes) | IC50 [4] | IC50 [5, 14] | further results
1 | O=C1CCNC(=O)c2[nH]c(Br)cc21 [Compound 7, bromoaldisin] | > 90 µg/mL | 61.5 µg/mL (≈ 253 µM) | > 90 µg/mL | > 90 µg/mL | > 20 µg/mL | 
2 | spongiacidin B [Compound 6] |  |  |  |  |  | CC50 Cytotoxicity L6 cells (L6 cells [6]): 35.6 µg/mL and 35.61 µg/mL; IC50 T. b. rhodesiense ([2]; STIB 900 bloodstream forms): 13.58 µg/mL and 13.48 µg/mL; IC50 L. donovani ([3]; axenic amastigotes): 41.59 µg/mL; IC50 P. falciparum ([5]; erythrocytic stage): 1.34 µg/mL and 1.09 µg/mL
3 | O=C1NC[C@@H](O)n2c1cc(Br)c2Br [Compound 9, longamide A] | > 90 µg/mL | > 90 µg/mL | > 90 µg/mL | > 90 µg/mL | > 20 µg/mL | 
4 | NC1=NC(=O)/C(=C/CCNC(=O)c2cc(Br)c[nH]2)N1 [Compound 3, dispacamide B] | > 90 µg/mL | 40.1 µg/mL (≈ 123 µM) | > 90 µg/mL | > 90 µg/mL | 1.09 µg/mL (≈ 3.34 µM) | CC50 Cytotoxicity L6 cells (L6 cells [6]): devoid of any cytotoxicity; IC50 L. donovani ([3]; axenic amastigotes): completely inactive; Selectivity index (CC50 L6 / IC50 parasite) for P. falciparum [5]: > 67.2; IC50 P. falciparum ([5]; erythrocytic stage): 1.34 µg/mL (≈ 4.11 µM)
5 | agelongine [Compound 14] |  |  |  |  |  | CC50 Cytotoxicity L6 cells (L6 cells [6]): >90 µg/mL; IC50 T. b. rhodesiense ([2]; STIB 900 bloodstream forms): 49.96 µg/mL; IC50 L. donovani ([3]; axenic amastigotes): 43.22 µg/mL; IC50 T. cruzi [4]: >90 µg/mL; IC50 P. falciparum ([5]; erythrocytic stage): 11.18 µg/mL
6 | Nc1ncc(/C=C/CNC(=O)c2cc(Br)c(Br)[nH]2)[nH]1 [Compound 1b, oroidin] |  |  |  |  |  | CC50 Cytotoxicity L6 cells (L6 cells [7]): 76.40 ^1 μg/mL; IC50 T. cruzi [8]: >30 ^1 μg/mL; IC50 L. donovani [9]: 15.40 ^1 μg/mL; IC50 P. falciparum [10]: 7.90 ^1 μg/mL; IC50 T. b. rhodesiense [11]: 12.20 ^1 μg/mL; PfFabI inhibition (in words) [12]: potent PfFAbI inhibitors
7 | Nc1nc([C@H]2[C@H](CNC(=O)c3cc(Br)c[nH]3)[C@@H](CNC(=O)c3cc(Br)c[nH]3)[C@@H]2c2c[nH]c(N)n2)c[nH]1 [Compound 10, sceptrin] | > 90 µg/mL | 9.71 µg/mL (≈ 15.7 µM) | 51.6 µg/mL (≈ 83.2 µM) | > 33 µg/mL | 11.1 µg/mL (≈ 17.9 µM) | IC50 T. cruzi [4]: 60.08 µg/mL (≈ 96.9 µM)
8 | NCC1C2CN3C(=O)c4cc(Br)c(Br)n4C4N=C(N)NC43C2C2(N=C(N)NC2O)C1Cl (stereo not drawn) [Compound 11, dibromopalau’amine] |  | 0.46 µg/mL (≈ 0.796 µM) |  |  |  | CC50 at 72 h [1, 15]: 4.46 µg/mL (≈ 7.72 µM); Selectivity index (CC50 L6 / IC50 parasite) for T. brucei rhodesiense [2]: about 10; Selectivity index (CC50 L6 / IC50 parasite) for L. donovani [3]: 3–4; IC50 [3]: 1.09 µg/mL (≈ 1.89 µM); Selectivity index (CC50 L6 / IC50 parasite) for P. falciparum [5]: 3–4; IC50 [5, 16]: 1.48 µg/mL (≈ 2.56 µM)
9 | Nc1nc(N)nc(Nc2ccc([As]3SCC(CO)S3)cc2)n1 (stereo not drawn) [Melarsoprol, reference compound] |  |  |  |  |  | IC50 [2]: 0.004 µg/mL
10 | Nc1ncc(/C=C/CNC(=O)c2cc(Br)c(Br)[nH]2)[nH]1 [Compound 1a, oroidin] |  |  |  |  |  | CC50 Cytotoxicity L6 cells (L6 cells [7]): 88.60 ^1 μg/mL; IC50 T. cruzi [8]: >30 ^1 μg/mL; IC50 L. donovani [9]: >30 ^1 μg/mL; IC50 P. falciparum [10]: 3.90 ^1 μg/mL; IC50 T. b. rhodesiense [11]: 17.30 ^1 μg/mL; PfFabI inhibition (in words) [12]: potent PfFAbI inhibitors
11 | Nc1ncc(C2=CCNC(=O)c3[nH]c(Br)c(Br)c32)[nH]1 [Compound 5, stevensine] | > 90 µg/mL | 25.3 µg/mL (≈ 65.5 µM) | 75.9 µg/mL (≈ 196 µM) | > 90 µg/mL | 4.88 µg/mL (≈ 12.6 µM) | 
12 | N=C(N)NCCCC[C@H](NC(=O)c1cc(Br)c[nH]1)C(=O)O [Compound 12, bromopyrrolohomoarginin] | 62.3 µg/mL (≈ 173 µM) | 67.1 µg/mL (≈ 186 µM) | 34.5 µg/mL (≈ 95.7 µM) | > 90 µg/mL | > 20 µg/mL | IC50 ([13]; read-out: IC50 PfFabZ (converted)): 777 nM
13 | O=C(O)CC1CNC(=O)c2cc(Br)c(Br)n21 (stereo not drawn) [Compound 8, longamide B] | 9.94 µg/mL (≈ 28.2 µM) | 1.53 µg/mL (≈ 4.35 µM) | 3.85 µg/mL (≈ 10.9 µM) | > 33 µg/mL | 7.46 µg/mL (≈ 21.2 µM) | Selectivity index (CC50 L6 / IC50 parasite) for T. brucei rhodesiense [2]: 6.5; Selectivity index (CC50 L6 / IC50 parasite) for L. donovani [3]: 2.6; IC50 T. cruzi [4]: 33.03 µg/mL (≈ 93.8 µM)
14 | Nc1ncc(/C=C/CNC(=O)c2cc(Br)c[nH]2)[nH]1 [Compound 2, hymenidin] | 75.7 µg/mL (≈ 244 µM) | 77.6 µg/mL (≈ 250 µM) | 29.9 µg/mL (≈ 96.3 µM) |  | 12.5 µg/mL (≈ 40.4 µM) | 
15 | CCN(CC)CCCC(C)Nc1ccnc2cc(Cl)ccc12 (stereo not drawn) [Chloroquine, reference compound] |  |  |  |  |  | IC50 [5, 16]: 0.065 µg/mL (≈ 0.203 µM)
16 | COc1cc([C@@H]2c3cc4c(cc3[C@H](O)[C@H]3COC(=O)[C@H]23)OCO4)cc(OC)c1OC [Podophyllotoxin, reference compound] |  |  |  |  |  | CC50 at 72 h [1, 15]: 0.005 µg/mL (≈ 0.0121 µM)
17 | O=C(O[C@@H]1Cc2c(O)cc(O)cc2O[C@@H]1c1cc(O)c(O)c(O)c1)c1cc(O)c(O)c(O)c1 [(−)-epigallocatechin gallate, reference compound] |  |  |  |  |  | IC50 [13]: 698 nM
18 | CCCCCCCCCCCCCCCCOP(=O)([O-])OCC[N+](C)(C)C [Miltefosine, reference compound] |  |  | 0.21 µg/mL (≈ 0.515 µM) |  |  | IC50 L. donovani ([3]; axenic amastigotes): 0.206 ^c μg/mL
19 | O=C(Cn1ccnc1[N+](=O)[O-])NCc1ccccc1 [Benznidazole, reference compound] |  |  |  | 0.312 µg/mL (≈ 1.2 µM) |  | 
20 | C[C@]1(COC(=O)c2cc(Br)c[nH]2)C[C@@H](C(=O)O)N=CN1 [Compound 13, manzacidin A] | > 90 µg/mL | 73.8 µg/mL (≈ 214 µM) | 75.8 µg/mL (≈ 220 µM) | > 90 µg/mL | > 20 µg/mL | 
21 | NC1=NC(=O)/C(=C/C(O)CNC(=O)c2cc(Br)c[nH]2)N1 (stereo not drawn) [Compound 4, dispacamide D] | > 90 µg/mL | 68.2 µg/mL (≈ 199 µM) | 53.8 µg/mL (≈ 157 µM) | > 90 µg/mL | > 20 µg/mL | 
